According to patent US10253011B1, “Lubiprostone crystals and methods for preparing the same” (CHIROGATE INTERNATIONAL INC., priority 2018, dated 2019):

How the values were obtained:
Format in all cases: physicochemical
[1] = Storage stability of Lubiprostone crystal V (crystalline form and degradation to impurity A); conditions: six months of storage at about −20° C.
[2] = Crystal form transformation of Lubiprostone crystal V stirred in isopropyl acetate/heptane, XRPD; conditions: stirred in isopropyl acetate (0.16 ml)/heptane (0.84 ml) at 20° C., within two hours
Protocol: X-ray Powder Diffraction (XRPD) Analysis: The XRPD patterns were collected on a Bruker D2 PHASER diffractometer with fixed divergence slits and 1D LYNXEYE detector. The samples (ca. 100 mg) were flatly placed on a sample holder. The prepared samples were analyzed over a 2θ range from 5° to 50° with step size of 0.02 degrees and step time of 1 second using CuKα radiation at a power of 10 mA and 30 kV. The CuKβ radiation was removed by a divergent beam nickel filter.
Lubiprostone crystal V (0.20 g, from Example 9) was added to a mixture of isopropyl acetate (0.16 ml) and heptane (0.84 ml)(i.e., the solvent system for crystallization of US 2010/056808), and the mixture was stirred at 20° C. for 2 hours. The resulting suspension was filtered and rinsed, and then dried under high vacuum at room temperature to give Lubiprostone crystal I. The XRPD results are shown in FIGS. 12(a) and 12(b).
Therefore, the Lubiprostone crystal V is a novel crystalline form of Lubiprostone, and the crystalline form shown in FIG. 2 found in the unit cell of Lubiprostone crystal II by optical microscope is an enantiomorph of Lubiprostone, rather than Lubiprostone crystal V.

[3] = Crystal form stability of Lubiprostone crystal V in the third solvent used for seeded crystallization

stability on storage (other crystalline forms, degraded products of impurity A) [1]: good stability | conversion of crystalline form to Lubiprostone crystal I (XRPD) [2]: completely converted | conversion of crystalline form to Lubiprostone crystal I ([3]; esters such as isopropyl acetate as third solvent): rapidly converted | stability of crystal form against conversion to Lubiprostone crystal I ([3]; o-xylene, m-xylene, ethyl ether, isopropyl ether or methyl tert-butyl ether as third solvent): very stable
SMILES: CCCCC(F)(F)[C@@]1(O)CC[C@H]2[C@@H](CC(=O)[C@@H]2CCCCCCC(=O)O)O1 [Lubiprostone crystal V, Lubiprostone]
